# Where two headings read alike, the source gives them in different places.
# Key:
# Format in all cases: cell-based
# HBV = assay: Anti-viral assay in HepG2.2.15 cells: HBV DNA in culture medium by qPCR
# Description: (§1) HepG2.2.15 (the HepG2.2.15 cell line can be produced by transfection of the HepG2 cell line as described in Sells, Chen, and Acs 1987 (Proc. Natl. Acad. Sci. USA 84: 1005-1009), and the HepG2 cell line is available from ATCC® under number HB-8065™).
# (§2) HepG2.2.15 cells were plated into 96-well plate in 2% FBS culture medium at the density of 40,000 cells/well and 5,000 cells/well for HBV inhibitory activity and cytotoxicity determination, respectively. After incubation at 37° C., 5% CO2 overnight, cells were treated with medium containing compounds for 6 days with medium and compounds refreshed after 3 days of treatment. Each compound was tested in a 1:3 serial dilutions at 8 different concentrations in triplicate. The highest concentration of the compounds was 10 uM or 1 uM for anti-HBV activity assay and 100 uM for cytotoxicity determination. Cell viability was determined by CCK-8 assay. After 6 days of compounds treatment, 20 μl CCK-8 reagents were added to each well of cytotoxicity assay plates. Cell plates were incubated at 37° C., 5% CO2 for 2.5 h. The absorbance at 450 nm wavelength and the absorbance at 630 nm wavelength as reference was measured.
# The change of HBV DNA level induced by the compounds was assessed by quantitative real-time polymerase chain reaction (qPCR). Briefly, the HBV DNA in the culture medium was extracted using QlAamp 96 DNA Blood Kit according to the manual and then quantified by real-time PCR assay using the primers and probe in the table 1 below.
# (§3) EC50 and CC50 values are calculated by the GRAPHPAD PRISM software.
# HepG2.2.15 cells = assay: Cytotoxicity determination in HepG2.2.15 cells (CCK-8 cell viability); settings: 6 days treatment, CCK-8, highest concentration 100 uM
# Description: as §1, §2, §3
# [1] = as above; settings: human, 6 days treatment, CCK-8, highest concentration 100 uM
# Description: as §1, §2, §3
# [2] = HepG2.2.15 cells, 6 days treatment, HBV DNA in culture medium by real-time PCR, read-out: EC50
# [3] = Hepatitis B virus, HepG2.2.15, 144 h, HepG2.2.15 cells, 6 days treatment, HBV DNA in culture medium by real-time PCR, read-out: EC50
# [4] = Hepatitis B virus, HepG2.2.15, 144 h
smiles,measurement,setting,value
"COC(=O)C1=C(CN2CCO[C@H]3CN(CC(C)(C)C(=O)O)C(=O)[C@H]32)NC(c2nccs2)=N[C@H]1c1cccc(F)c1Cl (single isomer, unassigned) [Compound I-24A, 3-((4aS*,7aS*)-4-4(R*)-6-(2-chloro-3-fluorophenyl)-5-(methoxycarbonyl)-2-(thiazol-2-yl)-3,6-dihydropyrimidin-4-yl)methyl)-5-oxohexahydropyrrolo[3,4-b][1,4]oxazin-6(2H)-yl)-2,2-dimethylpropanoic acid]",EC50,HBV; [2],14 nM
same,CC50,HepG2.2.15 cells,> 100000 nM
"CCOC(=O)C1=C(CN2CCO[C@H]3CN(CC(C)(C)C(=O)O)C(=O)[C@H]32)NC(c2nccs2)=N[C@H]1c1ccc(F)cc1Cl (relative stereo) [Compound I-20A, 3-((4aS*,7aS*)-4-4(R*)-6-(2-chloro-4-fluorophenyl)-5-(ethoxycarbonyl)-2-(thiazol-2-yl)-3,6-dihydropyrimidin-4-yl)methyl)-5-oxohexahydropyrrolo[3,4-b][1,4]oxazin-6(2H)-yl)-2,2-dimethylpropanoic acid]",EC50,HBV; [2],1 nM
same,CC50,HepG2.2.15 cells,55000 nM
"CCOC(=O)C1=C(CN2CCO[C@H]3CN(CC(C)(C)C(=O)O)C(=O)[C@H]32)NC(c2nccs2)=N[C@H]1c1cccc(F)c1C (single isomer, unassigned) [Compound I-3B, (S)-3-((4aS*,7aS*)-4-((5-(Ethoxycarbonyl)-6-(3-fluoro-2-methylphenyl)-2-(thiazol-2-yl)-3,6-dihydropyrimidin-4-yl)methyl)-5-oxohexahydropyrrolo[3,4-b][1,4]oxazin-6(2H)-yl)-2,2-dimethylpropanoic acid]",EC50,HBV; [3],5.2 nM
same,CC50 at 6 days,[1],60200 nM
"CCOC(=O)C1=C(CN2CCO[C@@H]3CN(C(C)=O)C[C@@H]32)NC(c2nccs2)=N[C@H]1c1cccc(F)c1C (racemic) [Compound I-4E, (S)-ethyl 6-(((cis)-6-acetylhexahydropyrrolo[3,4-b][1,4]oxazin-4(4aH)-yl)methyl)-4-(3-fluoro-2-methylphenyl)-2-(thiazol-2-yl)-1,4-dihydropyrimidine-5-carboxylate]",EC50,HBV; [4],7.1 nM
same,CC50 at 6 days,[1],48300 nM
"COC(=O)C1=C(CN2CCO[C@H]3CN(CC(C)(C)C(=O)O)C(=O)[C@H]32)NC(c2nccs2)=N[C@H]1c1cccc(F)c1Cl (single isomer, unassigned) [Compound I-21A, 3-((4aS*,7aS*)-4-4(R*)-6-(2-chloro-3-fluorophenyl)-5-(methoxycarbonyl)-2-(thiazol-2-yl)-3,6-dihydropyrimidin-4-yl)methyl)-5-oxohexahydropyrrolo[3,4-b][1,4]oxazin-6(2H)-yl)-2,2-dimethylpropanoic acid]",EC50,HBV; [3],8 nM
same,CC50 at 6 days,[1],> 100000 nM
"CCOC(=O)C1=C(CN2CCO[C@@H]3CN(CC(C)(C)C(=O)O)CC[C@@H]32)NC(c2nccs2)=N[C@H]1c1cccc(F)c1C (single isomer, unassigned) [Compound I-11A, (S)-3-((4aR*,8aS*)-1-((5-(Ethoxycarbonyl)-6-(3-fluoro-2-methylphenyl)-2-(thiazol-2-yl)-3,6-dihydropyrimidin-4-yl)methyl)hexahydro-1H-pyrido[3,4-b][1,4]oxazin-6(7H)-yl)-2,2-dimethylpropanoic acid]",EC50,HBV; [3],48 nM
same,CC50 at 6 days,[1],97900 nM
"COC(=O)C1=C(CN2CCO[C@@H]3CN(C(=O)OC(C)(C)C)C[C@H]32)NC(c2ncc(F)cc2F)=N[C@H]1c1ccc(F)cc1Cl (single isomer, unassigned) [Reference 1A, (4aR*,7aR*)-tert-butyl 4-(((R*)-6-(2-chloro-4-fluorophenyl)-2-(3,5-difluoropyridin-2-yl)-5-(methoxycarbonyl)-3,6-dihydropyrimidin-4-yl)methyl)hexahydropyrrolo[3,4-b][1,4]oxazine-6(2H)-carboxylate, reference compound]",EC50,HBV; [3],> 1000 nM
same,CC50 at 6 days,[1],14000 nM
"COC(=O)C1=C(CN2CCO[C@H]3CN(CC(C)(C)C(=O)O)C[C@H]32)NC(c2nccs2)=N[C@H]1c1ccc(F)cc1Cl (single isomer, unassigned) [Compound I-15A, 3-((4aR*,7aS*)-4-((R*)-6-(2-Chloro-4-fluorophenyl)-5-(methoxycarbonyl)-2-(thiazol-2-yl)-3,6-dihydropyrimidin-4-yl)methyl)hexahydropyrrolo[3,4-b][1,4]oxazin-6(2H)-yl)-2,2-dimethylpropanoic acid]",EC50,HBV; [3],19 nM
same,CC50 at 6 days,[1],> 100000 nM
"CCOC(=O)C1=C(CN2CCO[C@H]3CN(C(=O)CC(C)(C)C(=O)O)C[C@H]32)NC(c2nccs2)=N[C@H]1c1cccc(F)c1C (relative stereo) [Compound I-2A, 4-((4aR*,7aS*)-4-4(S)-5-(ethoxycarbonyl)-6-(3-fluoro-2-methylphenyl)-2-(thiazol-2-yl)-3,6-dihydropyrimidin-4-yl)methyl)hexahydropyrrolo[3,4-b][1,4]oxazin-6(2H)-yl)-2,2-dimethyl-4-oxobutanoic acid]",EC50,HBV; [4],33 nM
same,CC50 at 6 days,[1],74000 nM
"CCOC(=O)C1=C(CN2CCO[C@H]3CCN(CC(C)(C)C(=O)O)C[C@H]32)NC(c2nccs2)=N[C@H]1c1cccc(F)c1C (single isomer, unassigned) [Compound I-10A, 3-((4aR*,8aS*)-4-(((S)-5-(Ethoxycarbonyl)-6-(3-fluoro-2-methylphenyl)-2-(thiazol-2-yl)-3,6-dihydropyrimidin-4-yl)methyl)hexahydro-2H-pyrido[4,3-b][1,4]oxazin-6(7H)-yl)-2,2-dimethylpropanoic acid]",EC50,HBV; [3],28 nM
same,CC50 at 6 days,[1],94500 nM
"CCOC(=O)C1=C(CN2CCO[C@H]3CN(CC(C)(C)C(=O)O)C(=O)[C@H]32)NC(c2nccs2)=N[C@H]1c1ccc(F)c(F)c1Cl (single isomer, unassigned) [Compound I-23A, 3-((4aS*,7aS*)-4-4(R*)-6-(2-chloro-3,4-difluorophenyl)-5-(ethoxycarbonyl)-2-(thiazol-2-yl)-3,6-dihydropyrimidin-4-yl)methyl)-5-oxohexahydropyrrolo[3,4-b][1,4]oxazin-6(2H)-yl)-2,2-dimethylpropanoic acid]",EC50,HBV; [3],0.5 nM
same,CC50 at 6 days,[1],45000 nM
"COC(=O)C1=C(CN2CCO[C@H]3CN(CC(C)(C)C(=O)O)C[C@H]32)NC(c2nccs2)=N[C@H]1c1cccc(F)c1C (single isomer, unassigned) [Compound I-14A, 3-((4aR*,7aS*)-4-0(S*)-6-(3-fluoro-2-methylphenyl)-5-(methoxycarbonyl)-2-(thiazol-2-yl)-3,6-dihydropyrimidin-4-yl)methyl)hexahydropyrrolo[3,4-b][1,4]oxazin-6(2H)-yl)-2,2-dimethylpropanoic acid]",EC50,HBV; [3],33 nM
same,CC50 at 6 days,[1],> 100000 nM
"CCOC(=O)C1=C(CN2CCO[C@H]3CN(CC(C)(C)C(=O)O)C[C@H]32)NC(c2nccs2)=N[C@H]1c1ccc(F)cc1Cl (relative stereo) [Compound I-1A, 3-((4aR*,7aS*)-4-4(R*)-6-(2-chloro-4-fluorophenyl)-5-(ethoxycarbonyl)-2-(thiazol-2-yl)-3,6-dihydropyrimidin-4-yl)methyl)hexahydropyrrolo[3,4-b][1,4]oxazin-6(2H)-yl)-2,2-dimethylpropanoic acid]",EC50,HBV; [2],16 nM
same,CC50,HepG2.2.15 cells,59800 nM
"CCOC(=O)C1=C(CN2CCO[C@H]3CN(CC(C)(C)C(=O)O)C[C@H]32)NC(c2nccs2)=N[C@H]1c1cccc(F)c1Cl (single isomer, unassigned) [Compound I-13A, 3-((4aR*,7aS*)-4-0(R*)-6-(2-Chloro-3-fluorophenyl)-5-(ethoxycarbonyl)-2-(thiazol-2-yl)-3,6-dihydropyrimidin-4-yl)methyl)hexahydropyrrolo[3,4-b][1,4]oxazin-6(2H)-yl)-2,2-dimethylpropanoic acid]",EC50,HBV; [3],13 nM
same,CC50 at 6 days,[1],67100 nM
"COC(=O)C1=C(CN2CCO[C@H]3CN(CC(C)(C)C(=O)O)C[C@H]32)NC(c2nccs2)=N[C@H]1c1cccc(F)c1Cl (single isomer, unassigned) [Compound I-16A, 3-((4aR*,7aS*)-4-0(R*)-6-(2-Chloro-3-fluorophenyl)-5-(methoxycarbonyl)-2-(thiazol-2-yl)-3,6-dihydropyrimidin-4-yl)methyl)hexahydropyrrolo[3,4-b][1,4]oxazin-6(2H)-yl)-2,2-dimethylpropanoic acid]",EC50,HBV; [3],15 nM
same,CC50 at 6 days,[1],92800 nM
"COC(=O)C1=C(CN2CCO[C@H]3CN(C(=O)OC(C)(C)C)C[C@@H]32)NC(c2ncc(F)cc2F)=N[C@@H]1c1ccc(F)cc1Cl (single isomer, unassigned) [Reference 1D, (4aS*,7aS*)-tert-butyl 4-4(S*)-6-(2-chloro-4-fluorophenyl)-2-(3,5-difluoropyridin-2-yl)-5-(methoxycarbonyl)-3,6-dihydropyrimidin-4-yl)methyl)hexahydropyrrolo[3,4-b][1,4]oxazine-6(2H)-carboxylate, reference compound]",EC50,HBV; [3],812 nM
same,CC50 at 6 days,[1],5600 nM
